Experimental data reported in patent publication US20210277015A1, “OGA INHIBITOR COMPOUNDS” (Janssen Pharmaceutica NV, priority 2018, published 2021).
Where a name gives a salt, the structure may show the parent alone.

Legend:
OGA = biological target: T1, OGA (Homo sapiens, UniProt O60502); assay: OGA cellular assay (ICC detection of O-GlcNAcylated proteins in HEK293 cells inducible for P301L mutant human Tau); type: cell-based; details: for Emax: HEK293, HEK293 cells inducible for P301L mutant human Tau; for Emax / Cellular Emax (%): maximum defined by Thiamet G at 200 uM; for EC50 / Cellular hOGA; pEC50 / Cellular Emax (%): HEK293 cells inducible for P301L mutant human Tau; for EC50 / Cellular hOGA; pEC50: 6 hours incubation, ICC O-GlcNAcylation; for EC50: read-out: Cellular hOGA, pEC50 (converted)
T1 construct: endogenous in cells; host or cells: HEK293 cells inducible for P301L mutant human Tau (isoform 2N4R)
T1 sequence (O60502 1-916): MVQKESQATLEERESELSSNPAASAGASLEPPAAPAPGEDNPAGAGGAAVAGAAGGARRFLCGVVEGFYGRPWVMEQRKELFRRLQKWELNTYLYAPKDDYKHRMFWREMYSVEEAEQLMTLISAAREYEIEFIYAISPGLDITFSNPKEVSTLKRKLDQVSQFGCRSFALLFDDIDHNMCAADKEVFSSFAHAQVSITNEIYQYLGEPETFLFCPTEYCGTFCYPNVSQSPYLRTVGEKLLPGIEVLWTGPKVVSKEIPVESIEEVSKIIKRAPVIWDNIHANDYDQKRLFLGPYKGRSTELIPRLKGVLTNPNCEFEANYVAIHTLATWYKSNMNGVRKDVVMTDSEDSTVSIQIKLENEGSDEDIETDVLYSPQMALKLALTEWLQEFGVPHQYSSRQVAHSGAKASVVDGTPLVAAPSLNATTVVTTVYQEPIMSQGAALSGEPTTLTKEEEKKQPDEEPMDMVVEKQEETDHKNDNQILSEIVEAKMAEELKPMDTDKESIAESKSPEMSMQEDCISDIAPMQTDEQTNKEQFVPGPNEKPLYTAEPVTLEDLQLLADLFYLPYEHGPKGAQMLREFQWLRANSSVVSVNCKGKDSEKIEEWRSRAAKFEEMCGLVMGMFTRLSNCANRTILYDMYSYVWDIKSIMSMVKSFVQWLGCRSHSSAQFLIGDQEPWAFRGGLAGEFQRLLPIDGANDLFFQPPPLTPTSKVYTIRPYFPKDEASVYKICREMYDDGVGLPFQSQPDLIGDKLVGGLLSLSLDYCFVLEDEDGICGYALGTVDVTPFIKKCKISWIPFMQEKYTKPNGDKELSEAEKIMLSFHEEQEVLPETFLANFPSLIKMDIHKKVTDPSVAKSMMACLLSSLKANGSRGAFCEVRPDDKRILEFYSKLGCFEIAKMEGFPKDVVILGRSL
Summary of the method: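 HEK293 cells inducible for P301L human Tau (2N4R), in low-glucose medium, treated 6 h with compounds at 0.2% DMSO. After PFA fixation, O-GlcNAcylated proteins immunostained (CTD110.6), intensity imaged at 488 nm, Hoechst nuclei counted for toxicity. IC50 via non-linear regression; Thiamet G 200 uM as maximum.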

[1] = biological target: T2, recombinant human Meningioma Expressed Antigen 5 (MGEA5), also referred to as O-GlcNAcase (OGA) (Homo sapiens, UniProt O60502); assay: OGA biochemical assay (inhibition of FM-GlcNAc hydrolysis, fluorescence); details: FM-GlcNAc substrate; for IC50: 6 h at room temperature, read-out: Enzymatic hOGA, pIC50 (converted); for Emax / Enzymatic Emax (%): maximal effect; for Emax: read-out: Enzymatic Emax (%)
T2 construct: Full length OGA enzyme was purchased at OriGene (cat #TP322411); purchased OriGene TP322411
T2 sequence (O60502 1-916): T1 sequence (O60502 1-916)
Summary of the method: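 Full-length human OGA (2 nM) pre-incubated 60 min at room temperature with compound, then FM-GlcNAc (100 µM final) added in citrate/phosphate buffer pH 7.2 with 0.005% Tween-20; 6 h at room temperature, stopped with carbonate pH 11.0. Fluorescein read at 485/538 nm; IC50 and Hill coefficient from curve fit.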

Row | melting point [°C] | Emax (OGA) [%] | EC50 (OGA) [nM] | IC50 [1] [nM] | Emax [1] [%] | Cellular hOGA; pEC50 (OGA) | Cellular Emax (%) (OGA) | Enzymatic Emax (%) [1] [%] | Compound
1 | 297.5 |  |  |  |  |  |  |  | Cc1cc(C[C@H]2CCN(C(C)c3ccc4c(c3)OCCN4C)C2)cc(C)n1 (some centres unmarked) (as salt: HCl) [Product 1]
2 |  | 1 | > 1000 | 2510 | 86 |  |  |  | Cc1ncc(O[C@@H]2CCN(C(C)c3ccc4c(n3)OCCO4)C2)cn1 (some centres unmarked) [Product 62]
3 |  | 48 | 501 | 158 | 89 |  |  |  | Cc1cc(O[C@@H]2CCN(C(C)c3nc4c(cc3F)OCCO4)C2)ccn1 (some centres unmarked) [Product 125]
4 |  |  |  | 200 |  | <6 | 24 | 94 | CC(c1ccc2c(n1)OCCO2)N1CC[C@@H](Oc2ccc(C#N)nn2)C1 (single isomer, unassigned) [Product 55]
5 |  | 59 | 631 | 100 | 100 |  |  |  | Cc1cc(OC[C@H]2CCN(C(C)c3nc4c(cc3F)OCCO4)C2)cc(C)n1 (mixture of isomers) [Product 119]
6 |  | 59 | 437 | 50.1 | 95 |  |  |  | Cc1cc(O[C@@H]2CCN(C(C)c3nc4c(cc3F)OCCO4)C2)nc(C)n1 (some centres unmarked) [Product 128]
7 |  |  |  | 398 |  | <6 | 7 | 93 | Cc1cc(OC[C@]2(C)CCN([C@H](C)c3ccc4c(n3)OCCO4)C2)cc(C)n1 (single isomer, unassigned) [Product 102]
8 |  | 58 | 631 | 50.1 | 100 |  |  |  | Cc1cc(OC[C@@H]2CCN(C(C)c3nc4c(cc3F)OCCO4)C2)cc(C)n1 (some centres unmarked) [Product 50]
